Legend:
[1] = target: human GLP-1R (Homo sapiens, UniProt P43220, G168S); experiment: CHO GLP-1R Clone H6 - Assay 1 (HTRF cAMP agonist assay); conditions: read-out: Assay 1 Emax (%)
Experimental: (§8) GLP-1R-mediated agonist activity was determined with a cell-based functional assay utilizing an HTRF (Homogeneous Time-Resolved Fluorescence) cAMP detection kit (cAMP HI Range Assay Kit; CisBio cat #62AM6PEJ) that measures cAMP levels in the cell. The method is a competitive immunoassay between native cAMP produced by the cells and exogenous cAMP labeled with the dye d2. The tracer binding is visualized by a mAb anti-cAMP labeled with Cryptate. The specific signal (i.e. energy transfer) is inversely proportional to the concentration of cAMP in either standard or experimental sample.
(§9) The human GLP-1R coding sequence (NCBI Reference Sequence NP_002053.3, including naturally-occurring variant Gly168Ser) was subcloned into pcDNA3 (Invitrogen) and a cell line stably expressing the receptor was isolated (designated Clone H6).
(§10) Cells were removed from cryopreservation, re-suspended in 40 mL of Dulbecco's Phosphate Buffered Saline (DPBS—Lonza Cat #17-512Q) and centrifuged at 800×g for 5 minutes at 22° C. The cell pellet was then re-suspended in 10 mL of growth medium [DMEM/F12 1:1 Mixture with HEPES, L-Gln, 500 mL (DMEM/F12 Lonza Cat #12-719F), 10% heat inactivated fetal bovine serum (Gibco Cat #16140-071), 5 mL of 100× Pen-Strep (Gibco Cat #15140-122), 5 mL of 100× L-Glutamine (Gibco Cat #25030-081) and 500 μg/mL Geneticin (G418) (Invitrogen #10131035)]. A 1 mL sample of the cell suspension in growth media was counted on a Becton Dickinson ViCell to determine cell viability and cell count per mL. The remaining cell suspension was then adjusted with growth media to deliver 2000 viable cells per well using a Matrix Combi Multidrop reagent dispenser, and the cells were dispensed into a white 384 well tissue culture treated assay plate (Corning 3570). The assay plate was then incubated for 48 hours at 37° C. in a humidified environment in 5% carbon dioxide.
(§11) Varying concentrations of each compound to be tested (in DMSO) were diluted in assay buffer (HBSS with Calcium/Magnesium (Lonza/BioWhittaker cat #10-527F)/0.1% BSA (Sigma Aldrich cat #A7409-1L)/20 mM HEPES (Lonza/BioWhittaker cat #17-737E) containing 100 μM 3-isobutyl-1-methylxanthin (IBMX; Sigma cat #15879). The final DMSO concentration is 1%.
(§12) After 48 hours, the growth media was removed from the assay plate wells, and the cells were treated with 20 μL of the serially diluted compound in assay buffer for 30 minutes at 37° C. in a humidified environment in 5% carbon dioxide. Following the 30 minute incubation, 10 μL of labeled d2 cAMP and 10 μL of anti-cAMP antibody (both diluted 1:20 in cell lysis buffer; as described in the manufacturer's assay protocol) were added to each well of the assay plate. The plates were then incubated at room temperature and after 60 minutes, changes in the HTRF signal were read with an Envision 2104 multi-label plate reader using excitation of 330 nm and emissions of 615 and 665 nm. Raw data were converted to nM cAMP by interpolation from a cAMP standard curve (as described in the manufacturer's assay protocol) and the percent effect was determined relative to a saturating concentration of the full agonist GLP-17-36 (1 μM) included on each plate. EC50 determinations were made from agonist dose-response curves analyzed with a curve fitting program using a 4-parameter logistic dose response equation.

[2] = target: T1, human GLP-1R (Homo sapiens, UniProt P43220, L260F); experiment: CHO GLP-1R Clone C6 - Assay 2 (HTRF cAMP agonist assay, low receptor density); assay type: cell-based; conditions: CHO GLP-1R Clone C6 (low receptor density); for Emax: arithmetic mean, relative to 1 μM GLP-1
T1 construct: expressed in transfected cells
Experimental: GLP-1R-mediated agonist activity was determined with a cell-based functional assay utilizing an HTRF (Homogeneous Time-Resolved Fluorescence) cAMP detection kit (cAMP HI Range Assay Kit; Cis Bio cat #62AM6PEJ) that measures cAMP levels in the cell. The method is a competitive immunoassay between native cAMP produced by the cells and exogenous cAMP labeled with the dye d2. The tracer binding is visualized by a mAb anti-cAMP labeled with Cryptate. The specific signal (i.e. energy transfer) is inversely proportional to the concentration of cAMP in either a standard or an experimental sample.
The human GLP-1R coding sequence (NCBI Reference Sequence NP_002053.3, including naturally-occurring variant Leu260Phe) was subcloned into pcDNA5-FRT-TO and a clonal CHO cell line stably expressing a low receptor density was isolated using the Flp-In™ T-Rex™ System, as described by the manufacturer (ThermoFisher).
Cells were removed from cryopreservation, re-suspended in 40 mL of Dulbecco's Phosphate Buffered Saline (DPBS—Lonza Cat #17-512Q) and centrifuged at 800×g for 5 minutes at 22° C. The DPBS was aspirated, and the cell pellet was re-suspended in 10 mL of complete growth medium (DMEM:F12 1:1 Mixture with HEPES, L-Gln, 500 mL (DMEM/F12 Lonza Cat #12-719F), 10% heat inactivated fetal bovine serum (Gibco Cat #16140-071), 5 mL of 100× Pen-Strep (Gibco Cat #15140-122), 5 mL of 100× L-Glutamine (Gibco Cat #25030-081), 700 μg/mL Hygromycin (Invitrogen Cat #10687010) and 15 μg/mL Blasticidin (Gibco Cat #R21001). A 1 mL sample of the cell suspension in growth media was counted on a Becton Dickinson ViCell to determine cell viability and cell count per mL. The remaining cell suspension was then adjusted with growth media to deliver 1600 viable cells per well using a Matrix Combi Multidrop reagent dispenser, and the cells were dispensed into a white 384 well tissue culture treated assay plate (Corning 3570). The assay plate was then incubated for 48 hours at 37° C. in a humidified environment (95% O2, 5% CO2)
Varying concentrations of each compound to be tested (in DMSO) were diluted in assay buffer [HBSS with Calcium/Magnesium (Lonza/BioWhittaker cat #10-527F)/0.1% BSA (Sigma Aldrich cat #A7409-1L)/20 mM HEPES (Lonza/BioWhittaker cat #17-737E)] containing 100 μM 3-isobutyl-1-methylxanthin (IBMX; Sigma cat #15879). The final DMSO concentration in the compound/assay buffer mixture is 1%.
After 48 hours, the growth media was removed from the assay plate wells, and the cells were treated with 20 μL of the serially diluted compound in assay buffer for 30 minutes at 37° C. in a humidified environment (95% O2, 5% CO2). Following the 30 minute incubation, 10 μL of labeled d2 cAMP and 10 μL of anti-cAMP antibody (both diluted 1:20 in cell lysis buffer; as described in the manufacturer's assay protocol) were added to each well of the assay plate. The plates were then incubated at room temperature and after 60 minutes, changes in the HTRF signal were read with an Envision 2104 multi-label plate reader using excitation of 330 nm and emissions of 615 and 665 nm. Raw data were converted to nM cAMP by interpolation from a cAMP standard curve (as described in the manufacturer's assay protocol) and the percent effect was determined relative to a saturating concentration of the full agonist GLP-1 (1 μM) included on each plate. EC50 determinations were made from agonist dose response curves analyzed with a curve fitting program using a 4-parameter logistic dose response equation.

[3] = Metabolites of Compound 2 in rat bile following a 1.0 mg/kg IV bolus dose; assay type: in vivo; conditions: 1.0 mg/kg IV bolus dose of Compound 2, bile duct cannulated rats, pooled 0-24 hrs
Experimental: (§1) Plasma and bile samples were obtained from a bile duct cannulated rat experiment (Study PK-0111) in which a 1.0 mg/kg IV bolus dose was administered to fed male rats (N=3). No control plasma was available from this experiment.
Bile samples (0-3, 3-7, and 7-24 hrs) from individual animals were pooled in proportion to the amount collect in each interval. Then 0.5 mL of each individual pool was combined to prepare a composite sample for analysis.
(§2) Pooled plasma and bile samples were extracted with ACN containing 0.1% formic acid, and after centrifugation at 1900×g, the supernatant was transferred to clean tubes and evaporated under N2 in a Turbovap set at 37° C. Residues were reconstituted in mobile phase (5:95 v:v ACN:0.1% aqueous formic acid) prior to analysis by HPLC/UV/MS^n.
(§3) Samples were analyzed by HPLC/UV/MS^n using a Thermo Orbitrap Elite mass spectrometer in conjunction with a Thermo Open Accela UHPLC system. A 3.0×150 mm, 2.5 μm Acquity CSH C18 HPLC column (Waters) was heated to 45° C. for separation of analytes. The mobile phase was a gradient of A): water containing 0.1% formic acid, and B): acetonitrile. The flow rate was 450 μL/min, and the following gradient program was utilized: […]
(§4) UV absorbance was monitored with a photo-diode array detector from 220-450 nm. The mass spectrometer was operated in positive-ion mode with a HESI ion source at a potential of 3.0 kV, and capillary and source heater temperatures of 380 and 300° C., respectively. Sheath, auxiliary, and sweep gas flows were set to 45, 10, and 2 units, respectively. Full scan mass spectra were acquired over the range 120-1200 m/z at a resolving power of 30,000 (specified at m/z 400). Data-dependent MS^n spectra were acquired in an automated fashion at 15,000 resolving power using CID and HCD fragmentation with normalized collision energy settings of 28 and 65 V, respectively.
(§5) Metabolites were characterized by comparisons of mass spectral fragmentation patterns with that of a Compound 2 standard. All HPLC/UV/MS^n data were processed using Xcalibur v. 2.2, and integrated UV peak areas were subjected to weighted UV binning procedures utilizing an Excel template.

[4] = Circulating metabolites of Compound 2 in rat plasma following a 1.0 mg/kg IV bolus dose; assay type: in vivo; conditions: 1.0 mg/kg IV bolus dose of Compound 2, pooled 0.033-24 hrs
Experimental: as §1
Clin Pharmacol Ther 1981; 29(3):408-13]. The entire volume of each replicate Hamilton pool was combined to create a single pooled sample (576 μL) for analysis.
as §2, §3, §4, §5

[5] = system: monkey hepatocytes; experiment: In vitro metabolism of Compound 2 in monkey cryopreserved hepatocytes; assay type: in vitro ADME, cynomolgus monkey; design: key to Relative abundance of metabolite of Compound 2, Monkey: ND Not detected.; trace: Trace: observed by HPLC/MS measurements only.; + Minor as assessed by HPLC/UV measurements; ++ moderate as assessed by HPLC/UV measurements; +++ major as assessed by HPLC/UV measurements.; * m/z 593 and m/z 505 co-eluted in rabbit hepatocytes.; ** m/z 591 c and m/z 593 were merged in human hepatocytes and Hepatopack.; *** m/z 607 and m/z 751 b were merged in rabbit hepatocytes; conditions: for metabolite of Compound 2 observed in monkey hepatocyte incubations: 10 μM Compound 2, 7.5×10^5 cells/mL, 1 and 4 hrs composite; for Relative abundance of metabolite of Compound 2, Monkey: monkey cryopreserved hepatocytes, HPLC/UV/MS
Experimental: (§6) Male CD-1 mouse hepatocytes (lot YHL), male Wistar-Han rat hepatocytes (Celsius; product number: M000065; lot: SLA), female New Zealand rabbit hepatocytes (lot 1510147), male cryopreserved cynomolgus monkey hepatocytes (Celsius; product number: M00305; lot: DNB) and mixed-gender cryopreserved human hepatocytes (Bioreclamation; product number: S01988; lot: DCM) were obtained for the hepatocyte in-vitro assessments.
(§7) At time 0 hrs 550 μL aliquots were removed from incubations and quenched with 5 volumes of ACN containing 0.1% formic acid. At 1 and 4 hrs, 275 μL aliquots were removed and quenched as above; these were combined in the same tube to prepare a composite sample. For all hepatocyte experiments, samples were processed by centrifugation at 1900×g for 5 minutes, and then the supernatant was transferred to clean glass tubes and evaporated to dryness under a stream of N2 using a Turbovap at 37° C. Sample residues were reconstituted in mobile phase prior to analysis by HPLC/UV/MS^n.
as §3, §4, §5

[6] = system: mouse hepatocytes; experiment: In vitro metabolism of Compound 2 in mouse cryopreserved hepatocytes; assay type: in vitro ADME; design: key to Relative abundance of metabolite of Compound 2, Mouse: ND Not detected.; trace: Trace: observed by HPLC/MS measurements only.; + Minor as assessed by HPLC/UV measurements; ++ moderate as assessed by HPLC/UV measurements; +++ major as assessed by HPLC/UV measurements.; * m/z 593 and m/z 505 co-eluted in rabbit hepatocytes.; ** m/z 591 c and m/z 593 were merged in human hepatocytes and Hepatopack.; *** m/z 607 and m/z 751 b were merged in rabbit hepatocytes; conditions: for metabolite of Compound 2 observed in mouse hepatocyte incubations: 10 μM Compound 2, 7.5×10^5 cells/mL, 1 and 4 hrs composite; for Relative abundance of metabolite of Compound 2, Mouse: mouse cryopreserved hepatocytes, HPLC/UV/MS
Experimental: as §6, §7, §3, §4, §5

[7] = system: human hepatocytes; experiment: In vitro metabolism of Compound 2 in human cryopreserved hepatocytes; assay type: in vitro ADME; design: key to Relative abundance of metabolite of Compound 2, Human: ND Not detected.; trace: Trace: observed by HPLC/MS measurements only.; + Minor as assessed by HPLC/UV measurements; ++ moderate as assessed by HPLC/UV measurements; +++ major as assessed by HPLC/UV measurements.; * m/z 593 and m/z 505 co-eluted in rabbit hepatocytes.; ** m/z 591 c and m/z 593 were merged in human hepatocytes and Hepatopack.; *** m/z 607 and m/z 751 b were merged in rabbit hepatocytes; conditions: for metabolite of Compound 2 observed in human hepatocyte incubations: 10 μM Compound 2, 7.5×10^5 cells/mL, 1 and 4 hrs composite; for Relative abundance of metabolite of Compound 2, Human: human cryopreserved hepatocytes, HPLC/UV/MS
Experimental: as §6, §7, §3, §4, §5

[8] = system: human co-cultured hepatocytes (Hepatopack); experiment: In vitro metabolism of Compound 2 in human micropatterned co-cultured hepatocytes (Hepatopack); assay type: in vitro ADME; design: key to Relative abundance of metabolite of Compound 2, Hepatopack: ND Not detected.; trace: Trace: observed by HPLC/MS measurements only.; + Minor as assessed by HPLC/UV measurements; ++ moderate as assessed by HPLC/UV measurements; +++ major as assessed by HPLC/UV measurements.; * m/z 593 and m/z 505 co-eluted in rabbit hepatocytes.; ** m/z 591 c and m/z 593 were merged in human hepatocytes and Hepatopack.; *** m/z 607 and m/z 751 b were merged in rabbit hepatocytes; conditions: human co-cultured hepatocytes (Hepatopack); HPLC/UV/MS
From the text: Micro-patterned co-cultured (MPCC) hepatocyte 24-well plates containing human donors (16 wells each) were provided by Ascendance Biotechnology (formerly Hepregen Corp. (Medford, MA). [see Wang W W W, Khetani S R, Krzyzewski S, et al. Assessment of a Micropatterned Hepatocyte Coculture System to Generate Major Human Excretory and Circulating Drug Metabolites. Drug Metab Dispos 2010; 38(10):1900-5.] The MPCCs were created at Ascendance Biotechnology and maintained in serum containing medium for 5-6 days to allow for stabilization of the co-cultures prior to shipment. A mixed-gender cryopreserved pool of 10 human donors (X008001-P; lot YFA) was used to seed the plates and was purchased from BioreclamationIVT (Westbury, NY). MPCC hepatocytes are plated with fibroblasts in a 1:3 ratio with ˜25,000 hepatocytes/well in a 24-well plate. 24-Well MPCC plates were shipped to Pfizer, fresh medium (400 μL/well) was applied and cultures were kept at 37° C. with […] and 95% relative humidity for two days. Micropatterned co-cultures containing pooled hepatocytes were allowed 7 days to fully stabilize with respect to liver-specific functions. […] At respective time points (0, 2, and 7 days), the culture medium was removed and mixed with 4 volumes of ACN, then stored frozen at −40° C. until samples could be analyzed. Samples were subsequently processed by the addition of 2.5 mL of 1:1 ACN:MeOH containing 0.1% formic acid. After vortexing, the samples were centrifuged at 1900×g for 5 min, then the supernatant was transferred to 15 mL conical tubes and evaporated under N2 using a Turbovap set at 37° C. The residues were reconstituted in mobile phase (5:95 v:v ACN:0.1% aqueous formic acid) prior to analysis by HPLC/UV/MS^n.
as §3
as §4, with “Data-dependent MS^n spectra were acquired in an automated fashion at 15,000 resolving power using CID and HCD fragmentation with normalized collision energy settings of 28 and 65 V, respectively.” left out

[9] = system: rabbit hepatocytes; experiment: In vitro metabolism of Compound 2 in rabbit cryopreserved hepatocytes; assay type: in vitro ADME; design: key to Relative abundance of metabolite of Compound 2, Rabbit: ND Not detected.; trace: Trace: observed by HPLC/MS measurements only.; + Minor as assessed by HPLC/UV measurements; ++ moderate as assessed by HPLC/UV measurements; +++ major as assessed by HPLC/UV measurements.; * m/z 593 and m/z 505 co-eluted in rabbit hepatocytes.; ** m/z 591 c and m/z 593 were merged in human hepatocytes and Hepatopack.; *** m/z 607 and m/z 751 b were merged in rabbit hepatocytes; conditions: for metabolite of Compound 2 observed in rabbit hepatocyte incubations: 10 μM Compound 2, 7.5×10^5 cells/mL, 1 and 4 hrs composite; for Relative abundance of metabolite of Compound 2, Rabbit: rabbit cryopreserved hepatocytes, HPLC/UV/MS
Experimental: as §6, §7, §3, §4, §5

[10] = system: rat hepatocytes; experiment: In vitro metabolism of Compound 2 in rat cryopreserved hepatocytes; assay type: in vitro ADME; design: key to Relative abundance of metabolite of Compound 2, Rat: ND Not detected.; trace: Trace: observed by HPLC/MS measurements only.; + Minor as assessed by HPLC/UV measurements; ++ moderate as assessed by HPLC/UV measurements; +++ major as assessed by HPLC/UV measurements.; * m/z 593 and m/z 505 co-eluted in rabbit hepatocytes.; ** m/z 591 c and m/z 593 were merged in human hepatocytes and Hepatopack.; *** m/z 607 and m/z 751 b were merged in rabbit hepatocytes; conditions: for metabolite of Compound 2 observed in rat hepatocyte incubations: 10 μM Compound 2, 7.5×10^5 cells/mL, 1 and 4 hrs composite; for Relative abundance of metabolite of Compound 2, Rat: rat cryopreserved hepatocytes, HPLC/UV/MS
Experimental: as §6, §7, §3, §4, §5

[11] = target: human GLP-1R (Homo sapiens, UniProt P43220); experiment: CHO GLP-1R Clone H6 - Assay 1 (HTRF cAMP agonist assay)
Experimental: as §8, §9, §10, §11, §12

[12] = Metabolite profiling of pooled human plasma after repeat oral dosing of Compound 1 (HPLC/UV/MS)
Experimental: Plasma samples from nine human subjects following oral administration of 120 mg BID for 28 days in a clinical study were examined for metabolites.
Individual subject's plasma (from nine human subjects with 120 mg BID dose Day 28) were pooled in proportion to the time period represented by each to yield a pool for profiling that was representative of the AUC (0-12 hr) according to the method of Hamilton et al. [Hamilton R A, Garnett W R, Kline B J. Determination of a mean valproic acid serum level by assay of a single pooled sample. […] Pooled plasma time points were first prepared by aliquoting equal amounts (1.0 mL) of plasma from each subject prior to making a single Hamilton pool. Blank plasma pools were made by taking equal aliquots of predose samples. To a 2 mL aliquot of each pooled plasma sample was added 6 mL of acetonitrile and then mixed. Protein precipitated samples were centrifuged for 5 minutes at 2000×g and the supernatants were transferred to other clean 15 mL centrifuge tubes. Samples were dried using an evaporative centrifuge set to 37° C. Samples were reconstituted using 0.2 mL of 5:95 acetonitrile:water and analyzed by HPLC/UV/MS.
Reconstituted samples were analyzed by positive ion HPLC/UV/MS using a Thermo Orbitrap Elite mass spectrometer operating in positive ion electrospray mode. Xcalibur software version 3.0.63 was used to control the HPLC/UV/MS system. Full scan data were collected at 15,000 resolution. Data dependent product ion scans of the two most intense ions found in the full scan were obtained at 15,000 resolution. The dynamic exclusion function was used with a 10 second exclusion duration after 3 successive product ion scans with an early exclusion if the precursor ion fell below a signal to noise ratio of 20. The HPLC system consisted of an Accela quaternary solvent delivery pump, an Accela autoinjector, an Accela PDA Plus photodiode array detector (Thermo Electron Corporation). Chromatography was performed on a Phenomenex Kinetex column (2.1 mm×100 mm, 2.6 μm) at 45° C. using a HotSleeve column heater (Analytical Sales and Services). The mobile phase was composed of 0.1% formic acid in water (solvent A) and acetonitrile (solvent B). The solvent delivery gradient program was as follows:

T1 sequence (P43220 24-463 L260F): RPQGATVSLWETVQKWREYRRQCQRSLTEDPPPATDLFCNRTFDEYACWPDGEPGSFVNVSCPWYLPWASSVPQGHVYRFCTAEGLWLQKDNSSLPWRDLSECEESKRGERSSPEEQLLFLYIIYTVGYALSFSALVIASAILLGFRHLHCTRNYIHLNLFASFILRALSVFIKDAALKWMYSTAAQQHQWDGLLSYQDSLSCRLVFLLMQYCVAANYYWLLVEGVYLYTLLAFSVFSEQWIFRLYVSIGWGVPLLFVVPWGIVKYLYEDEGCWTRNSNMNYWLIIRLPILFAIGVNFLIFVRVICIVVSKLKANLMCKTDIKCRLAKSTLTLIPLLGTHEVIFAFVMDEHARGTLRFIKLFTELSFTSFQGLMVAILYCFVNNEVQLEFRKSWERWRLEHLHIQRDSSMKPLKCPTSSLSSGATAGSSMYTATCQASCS
Chain of human GLP-1R (Homo sapiens, UniProt P43220, G168S) (P43220 24-463 G168S): as the sequence (P43220 24-463 L260F) above, with G145S, F237L counted along it
Chain of human GLP-1R (Homo sapiens, UniProt P43220) (P43220 24-463 G168S): as the sequence (P43220 24-463 L260F) above, with G145S, F237L counted along it

| Emax [1] [%] | Emax [2] [%] | detected in rat bile [3] | detected in rat plasma [4] | metabolite of Compound 2 observed in monkey hepatocyte incubations [5] | Relative abundance of metabolite of Compound 2, Monkey [5] | metabolite of Compound 2 observed in mouse hepatocyte incubations [6] | Relative abundance of metabolite of Compound 2, Mouse [6] | metabolite of Compound 2 observed in human hepatocyte incubations [7] | Relative abundance of metabolite of Compound 2, Human [7] | Relative abundance of metabolite of Compound 2, Hepatopack [8] | metabolite of Compound 2 observed in rabbit hepatocyte incubations [9] | Relative abundance of metabolite of Compound 2, Rabbit [9] | metabolite of Compound 2 observed in rat hepatocyte incubations [10] | Relative abundance of metabolite of Compound 2, Rat [10] | EC50 [11] [µM] | EC50 ([2]; geometric mean) [µM] | observed as major or minor metabolite in human plasma ([12]; Compound 1 120 mg BID, Day 28) | Plasma Extracts ([12]; Compound 1 120 mg oral BID, Day 28, HPLC/UV/MS) | SMILES |
| --- | --- | --- | --- | --- | --- | --- | --- | --- | --- | --- | --- | --- | --- | --- | --- | --- | --- | --- | --- |
| 99 | 96 | detected | detected |  |  |  |  |  |  |  |  |  |  |  |  |  |  |  | C[C@]1(c2ccc(Cl)cn2)Oc2cccc(C3CCN(Cc4nc5ccc(C(=O)O)cc5n4C[C@@H]4CCO4)CC3)c2O1 [Compound 2, 2-((4-((S)-2-(5-chloropyridin-2-yl)-2-methylbenzo[d][1,3]dioxol-4-yl)piperidin-1-yl)methyl)-1-(((S)-oxetan-2-yl)methyl)-1H-benzo[d]imidazole-6-carboxylic acid] |
|  |  |  |  | observed in all hepatocyte incubations | + | observed in all hepatocyte incubations | + | observed in all hepatocyte incubations | ** | ** | observed in all hepatocyte incubations | +++ | observed in all hepatocyte incubations | trace |  |  |  |  | C[C@]1(c2ccc(Cl)cn2)Oc2cccc(C3CCN(Cc4nc5ccc(C(=O)O)cc5n4CC(O)CCO)CC3)c2O1 (stereo in doubt) [Metabolite 593] |
|  |  |  |  | observed in all hepatocyte incubations | trace | observed in all hepatocyte incubations | + | observed in all hepatocyte incubations | + | + | observed in all hepatocyte incubations | + | observed in all hepatocyte incubations | trace |  |  |  |  | C[C@]1(c2ccc(Cl)cn2)Oc2cccc(-c3cc[n+](Cc4nc5ccc(C(=O)O)cc5n4C[C@@H]4CCO4)cc3)c2O1 [Metabolite 569] |
| 2 | 0 |  |  |  |  |  |  |  |  |  |  |  |  |  | > 20 | > 20 | major circulating metabolite | +++ | O=C(O)c1ccc2nc(CN3CCC(c4cccc(=O)[nH]4)CC3)n(C[C@@H]3CCO3)c2c1 [Compound M2, (S)-2-((4-(6-hydroxypyridin-2-yl)piperidin-1-yl)methyl)-1-(oxetan-2-ylmethyl)-1H-benzo[d]imidazole-6-carboxylic acid] |

Source: patent US12065434B2, “Metabolites of GLP1R agonists” (Pfizer Inc., priority 2020, dated 2024)
